Source: PubChem BioAssay (NCI)
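Values below derive from 48-hour exposures of cells grown in 96-well plates, with endpoints linearly interpolated between the two concentrations bracketing the appropriate inhibition level. GI50: concentration for 50% inhibition of growth. Definition used: TGI = concentration required for complete inhibition of growth.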

Experiments:
Assay in all cases: DTP human tumour cell line panel, 48 h
BT-549 breast = tested on: BT-549 breast
HOP-62 NSCLC = tested on: HOP-62 NSCLC
HL-60(TB) leukemia = tested on: HL-60(TB) leukemia
HCT-116 colon = tested on: HCT-116 colon
NCI-H460 lung = tested on: NCI-H460 lung
MALME-3M melanoma = tested on: MALME-3M melanoma
EKVX NSCLC = tested on: EKVX NSCLC
OVCAR-3 ovarian = tested on: OVCAR-3 ovarian
SN12C renal = tested on: SN12C renal
MCF7 breast = tested on: MCF7 breast
UACC-62 melanoma = tested on: UACC-62 melanoma
DU-145 prostate = tested on: DU-145 prostate
NCI-H23 lung = tested on: NCI-H23 lung
HOP-92 NSCLC = tested on: HOP-92 NSCLC
UACC-257 melanoma = tested on: UACC-257 melanoma
M14 melanoma = tested on: M14 melanoma
SK-MEL-2 melanoma = tested on: SK-MEL-2 melanoma
RPMI-8226 leukemia = tested on: RPMI-8226 leukemia
786-0 renal = tested on: 786-0 renal
CAKI-1 renal = tested on: CAKI-1 renal
CCRF-CEM leukemia = tested on: CCRF-CEM leukemia
A549 NSCLC = tested on: A549 NSCLC
SR leukemia = tested on: SR leukemia
SW-620 colon = tested on: SW-620 colon
OVCAR-4 ovarian = tested on: OVCAR-4 ovarian
MDA-MB-231 breast = tested on: MDA-MB-231 breast
KM12 colon = tested on: KM12 colon
NCI-H226 lung = tested on: NCI-H226 lung
HCT-15 colon = tested on: HCT-15 colon
SF-295 CNS = tested on: SF-295 CNS
ACHN renal = tested on: ACHN renal
HS 578T breast = tested on: HS 578T breast
SK-MEL-28 melanoma = tested on: SK-MEL-28 melanoma
SF-268 CNS = tested on: SF-268 CNS
SK-OV-3 ovarian = tested on: SK-OV-3 ovarian
UO-31 renal = tested on: UO-31 renal
COLO 205 colon = tested on: COLO 205 colon
SF-539 CNS = tested on: SF-539 CNS
A498 renal = tested on: A498 renal
K-562 leukemia = tested on: K-562 leukemia
TK-10 renal = tested on: TK-10 renal
T-47D breast = tested on: T-47D breast
SNB-75 CNS = tested on: SNB-75 CNS
HT29 colon = tested on: HT29 colon
IGROV1 ovarian = tested on: IGROV1 ovarian
MOLT-4 leukemia = tested on: MOLT-4 leukemia
HCC-2998 colon = tested on: HCC-2998 colon
U251 CNS = tested on: U251 CNS
PC-3 prostate = tested on: PC-3 prostate
NCI/ADR-RES ovarian = tested on: NCI/ADR-RES ovarian
LOX IMVI melanoma = tested on: LOX IMVI melanoma
SNB-19 CNS = tested on: SNB-19 CNS
NCI-H522 lung = tested on: NCI-H522 lung
OVCAR-5 ovarian = tested on: OVCAR-5 ovarian
MDA-MB-435 = tested on: MDA-MB-435
OVCAR-8 ovarian = tested on: OVCAR-8 ovarian
SK-MEL-5 melanoma = tested on: SK-MEL-5 melanoma
RXF 393 renal = tested on: RXF 393 renal

SMILES: Cc1ccc(NC(=O)Cn2c(Br)nc3c2c(=O)n(C)c(=O)n3C)cc1
- GI50 (BT-549 breast): 11.1 µM
- TGI (BT-549 breast): 24 µM
- GI50 (HOP-62 NSCLC): 2.83 µM
- TGI (HOP-62 NSCLC): 9.7 µM
- GI50 (HL-60(TB) leukemia): > 100 µM
- TGI (HL-60(TB) leukemia): > 100 µM
- GI50 (HCT-116 colon): 2.43 µM
- TGI (HCT-116 colon): 8.02 µM
- GI50 (NCI-H460 lung): 3.39 µM
- TGI (NCI-H460 lung): 11.6 µM
- GI50 (MALME-3M melanoma): 2.33 µM
- TGI (MALME-3M melanoma): 7.01 µM
- GI50 (EKVX NSCLC): 10.7 µM
- TGI (EKVX NSCLC): 25.9 µM
- GI50 (OVCAR-3 ovarian): 2.31 µM
- TGI (OVCAR-3 ovarian): 5.35 µM
- GI50 (SN12C renal): 3.16 µM
- TGI (SN12C renal): 10.8 µM
- GI50 (MCF7 breast): 3.91 µM
- TGI (MCF7 breast): 18.3 µM
- GI50 (UACC-62 melanoma): 11.1 µM
- TGI (UACC-62 melanoma): 24.2 µM
- GI50 (DU-145 prostate): 4.64 µM
- TGI (DU-145 prostate): 16.4 µM
- GI50 (NCI-H23 lung): 6.31 µM
- TGI (NCI-H23 lung): 22 µM
- GI50 (HOP-92 NSCLC): 1.9 µM
- TGI (HOP-92 NSCLC): 5.29 µM
- GI50 (UACC-257 melanoma): 13.9 µM
- TGI (UACC-257 melanoma): 28.8 µM
- GI50 (M14 melanoma): 5.98 µM
- TGI (M14 melanoma): 19.2 µM
- GI50 (SK-MEL-2 melanoma): 13.4 µM
- TGI (SK-MEL-2 melanoma): 27.4 µM
- GI50 (RPMI-8226 leukemia): 3.25 µM
- TGI (RPMI-8226 leukemia): 19.4 µM
- GI50 (786-0 renal): 2.32 µM
- TGI (786-0 renal): 5.68 µM
- GI50 (CAKI-1 renal): 4.32 µM
- TGI (CAKI-1 renal): 16.3 µM
- GI50 (CCRF-CEM leukemia): 17.3 µM
- TGI (CCRF-CEM leukemia): 65.8 µM
- GI50 (A549 NSCLC): 5.61 µM
- TGI (A549 NSCLC): 24.5 µM
- GI50 (SR leukemia): 8.96 µM
- TGI (SR leukemia): 35.5 µM
- GI50 (SW-620 colon): 13.5 µM
- TGI (SW-620 colon): 33.2 µM
- GI50 (OVCAR-4 ovarian): 2.1 µM
- TGI (OVCAR-4 ovarian): 4.57 µM
- GI50 (MDA-MB-231 breast): 2.44 µM
- TGI (MDA-MB-231 breast): 6.42 µM
- GI50 (KM12 colon): 13.6 µM
- TGI (KM12 colon): 29.9 µM
- GI50 (NCI-H226 lung): 2.07 µM
- TGI (NCI-H226 lung): 4.76 µM
- GI50 (HCT-15 colon): 12.2 µM
- TGI (HCT-15 colon): 29.3 µM
- GI50 (SF-295 CNS): 9.84 µM
- TGI (SF-295 CNS): 21.8 µM
- GI50 (ACHN renal): 2.8 µM
- TGI (ACHN renal): 8.12 µM
- GI50 (HS 578T breast): 3.43 µM
- TGI (HS 578T breast): 14.9 µM
- GI50 (SK-MEL-28 melanoma): 11.4 µM
- TGI (SK-MEL-28 melanoma): 23.5 µM
- GI50 (SF-268 CNS): 8.3 µM
- TGI (SF-268 CNS): 22.8 µM
- GI50 (SK-OV-3 ovarian): 2.15 µM
- TGI (SK-OV-3 ovarian): 4.52 µM
- GI50 (UO-31 renal): 2.13 µM
- TGI (UO-31 renal): 6 µM
- GI50 (COLO 205 colon): 5.57 µM
- TGI (COLO 205 colon): 19.3 µM
- GI50 (SF-539 CNS): 1.94 µM
- TGI (SF-539 CNS): 4.21 µM
- GI50 (A498 renal): 2.01 µM
- TGI (A498 renal): 5.87 µM
- GI50 (K-562 leukemia): 18.5 µM
- TGI (K-562 leukemia): 74.5 µM
- GI50 (TK-10 renal): 3.2 µM
- TGI (TK-10 renal): 9.93 µM
- GI50 (T-47D breast): 3.05 µM
- TGI (T-47D breast): 14 µM
- GI50 (SNB-75 CNS): 1.43 µM
- TGI (SNB-75 CNS): 3.95 µM
- GI50 (HT29 colon): 13.8 µM
- TGI (HT29 colon): 51.5 µM
- GI50 (IGROV1 ovarian): 5 µM
- TGI (IGROV1 ovarian): 17.4 µM
- GI50 (MOLT-4 leukemia): 27.9 µM
- TGI (MOLT-4 leukemia): > 100 µM
- GI50 (HCC-2998 colon): 15.5 µM
- TGI (HCC-2998 colon): 28.9 µM
- GI50 (U251 CNS): 2.26 µM
- TGI (U251 CNS): 5.75 µM
- GI50 (PC-3 prostate): 11.5 µM
- TGI (PC-3 prostate): 24.1 µM
- GI50 (NCI/ADR-RES ovarian): 9.75 µM
- TGI (NCI/ADR-RES ovarian): 29.3 µM
- GI50 (LOX IMVI melanoma): 6.27 µM
- TGI (LOX IMVI melanoma): 19.4 µM
- GI50 (SNB-19 CNS): 7.92 µM
- TGI (SNB-19 CNS): 23.7 µM
- GI50 (NCI-H522 lung): 9.27 µM
- TGI (NCI-H522 lung): 36.3 µM
- GI50 (OVCAR-5 ovarian): 3.69 µM
- TGI (OVCAR-5 ovarian): 13.9 µM
- GI50 (MDA-MB-435): 9.32 µM
- TGI (MDA-MB-435): 21.2 µM
- GI50 (OVCAR-8 ovarian): 4.89 µM
- TGI (OVCAR-8 ovarian): 21.6 µM
- GI50 (SK-MEL-5 melanoma): 2.31 µM
- TGI (SK-MEL-5 melanoma): 5.57 µM
- GI50 (RXF 393 renal): 2.29 µM
- TGI (RXF 393 renal): 6.28 µM
